# Measurements reported in publication PMC7496730, “Peptide-PAINT Super-Resolution Imaging Using Transient Coiled Coil Interactions” (Nano Letters, 2020).
# Residues, ends and D or L forms follow the SMILES beside them.
# Biological target: E3 peptide (21 amino acid)
# Test: E/K coiled coil stability (length dependence, Figure S1), E3/K3 complex
# Type: binding
# Conditions: 21 aa long E3 and K3 peptides
# Experimental: The PAINT process requires a dynamic equilibrium between bound and unbound states of the fluorescently labeled imager probe. In DNA-PAINT, this is achieved when the transiently formed duplexes have stabilities in the micromolar range (KD ≈ 1 μM). The interaction between the 21 amino acid (aa) long E3 and K3 peptides previously used for protein imaging[20]−[23] leads to a coiled coil complex with nanomolar stability (KD ≈ 20 nM, Figure S1). Aiming for the identification of a suitable weaker affinity, we investigated the length dependence of coiled coil stability (Figure S1).
compound,measurement,value
CC[C@H](C)[C@H](NC(=O)[C@H](CCCCN)NC(C)=O)C(=O)N[C@@H](C)C(=O)N[C@@H](C)C(=O)N[C@@H](CC(C)C)C(=O)N[C@@H](CCCCN)C(=O)N[C@@H](CCC(=O)O)C(=O)N[C@@H](CCCCN)C(=O)N[C@H](C(=O)N[C@@H](C)C(=O)N[C@@H](C)C(=O)N[C@@H](CC(C)C)C(=O)N[C@@H](CCCCN)C(=O)N[C@@H](CCC(=O)O)C(=O)N[C@@H](CCCCN)C(=O)N[C@H](C(=O)N[C@@H](C)C(=O)N[C@@H](C)C(=O)N[C@@H](CC(C)C)C(=O)N[C@@H](CCCCN)C(=O)N[C@@H](CCC(=O)O)C(N)=O)[C@@H](C)CC)[C@@H](C)CC [K3] (Ac-KIAALKEKIAALKEKIAALKE-NH2),Kd,~0.02 µM
